From PMC3961306, “Comparison of the Cancer Gene Targeting and Biochemical Selectivities of All Targeted Kinase Inhibitors Approved for Clinical Use” (PLoS ONE, 2014)

Assays:
Assay in all cases: Kinase profiling in a biochemical assay panel (mobility shift assays and ELISA), %-inhibition at 1 μM; selectivity entropy
[1] = biological target: T1, panel of more than 300 wild-type and mutant kinases (313 kinase panel) (Homo sapiens, UniProt O43781)
T1 sequence (O43781 1-588): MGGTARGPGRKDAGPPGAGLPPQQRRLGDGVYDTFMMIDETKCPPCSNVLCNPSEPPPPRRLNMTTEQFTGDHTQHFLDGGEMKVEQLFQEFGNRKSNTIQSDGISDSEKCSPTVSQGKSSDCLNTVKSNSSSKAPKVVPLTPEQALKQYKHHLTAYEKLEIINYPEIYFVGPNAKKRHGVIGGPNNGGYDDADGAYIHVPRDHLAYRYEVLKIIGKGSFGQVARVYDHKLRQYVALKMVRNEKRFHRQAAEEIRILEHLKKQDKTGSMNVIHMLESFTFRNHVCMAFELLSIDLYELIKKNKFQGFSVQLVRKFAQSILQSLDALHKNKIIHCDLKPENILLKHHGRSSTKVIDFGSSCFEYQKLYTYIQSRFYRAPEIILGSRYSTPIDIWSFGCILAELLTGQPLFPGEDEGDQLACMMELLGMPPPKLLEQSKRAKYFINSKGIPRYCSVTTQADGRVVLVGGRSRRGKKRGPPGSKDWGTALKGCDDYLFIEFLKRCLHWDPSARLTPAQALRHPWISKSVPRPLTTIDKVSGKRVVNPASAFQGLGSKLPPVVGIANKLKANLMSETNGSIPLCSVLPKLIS

[2] = biological target: panel of more than 300 wild-type and mutant kinases (313 kinase panel) (Homo sapiens, UniProt P06241)
Sequence of panel of more than 300 wild-type and mutant kinases (313 kinase panel) (Homo sapiens, UniProt P06241) (P06241 whole entry, change not shown): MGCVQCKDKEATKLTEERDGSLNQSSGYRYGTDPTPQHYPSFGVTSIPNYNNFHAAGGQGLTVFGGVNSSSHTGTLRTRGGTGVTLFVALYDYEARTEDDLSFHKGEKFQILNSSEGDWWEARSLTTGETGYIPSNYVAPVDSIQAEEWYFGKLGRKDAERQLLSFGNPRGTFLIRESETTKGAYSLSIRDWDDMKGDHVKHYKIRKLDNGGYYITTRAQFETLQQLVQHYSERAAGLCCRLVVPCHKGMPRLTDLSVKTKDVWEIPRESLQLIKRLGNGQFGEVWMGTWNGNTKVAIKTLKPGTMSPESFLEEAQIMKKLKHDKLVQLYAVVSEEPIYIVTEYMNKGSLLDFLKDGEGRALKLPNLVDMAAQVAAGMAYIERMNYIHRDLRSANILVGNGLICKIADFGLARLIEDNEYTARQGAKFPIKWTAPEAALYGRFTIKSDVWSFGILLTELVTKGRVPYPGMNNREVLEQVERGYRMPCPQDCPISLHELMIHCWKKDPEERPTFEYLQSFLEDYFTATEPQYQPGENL

[3] = biological target: panel of more than 300 wild-type and mutant kinases (313 kinase panel) (Homo sapiens, UniProt P30291)
Sequence of panel of more than 300 wild-type and mutant kinases (313 kinase panel) (Homo sapiens, UniProt P30291) (P30291 whole entry, change not shown): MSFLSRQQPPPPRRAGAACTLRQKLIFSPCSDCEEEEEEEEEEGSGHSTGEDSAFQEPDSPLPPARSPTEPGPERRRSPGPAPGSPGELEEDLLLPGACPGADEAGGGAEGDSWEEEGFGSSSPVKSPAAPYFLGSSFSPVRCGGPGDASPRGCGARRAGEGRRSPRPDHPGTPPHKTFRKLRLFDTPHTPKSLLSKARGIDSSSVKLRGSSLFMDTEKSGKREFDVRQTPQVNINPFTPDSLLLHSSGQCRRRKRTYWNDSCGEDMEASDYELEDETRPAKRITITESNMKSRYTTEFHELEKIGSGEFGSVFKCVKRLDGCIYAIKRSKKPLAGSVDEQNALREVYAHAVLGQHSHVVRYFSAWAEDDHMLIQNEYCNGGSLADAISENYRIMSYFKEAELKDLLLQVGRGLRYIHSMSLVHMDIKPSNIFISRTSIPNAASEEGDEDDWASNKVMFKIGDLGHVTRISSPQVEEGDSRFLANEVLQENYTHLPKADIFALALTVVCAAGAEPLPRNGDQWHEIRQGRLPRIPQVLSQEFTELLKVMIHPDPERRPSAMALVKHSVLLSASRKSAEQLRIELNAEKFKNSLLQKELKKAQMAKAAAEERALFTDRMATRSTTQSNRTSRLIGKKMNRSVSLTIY

[4] = biological target: panel of more than 300 wild-type and mutant kinases (313 kinase panel) (Homo sapiens, UniProt P41279)
Sequence of panel of more than 300 wild-type and mutant kinases (313 kinase panel) (Homo sapiens, UniProt P41279) (P41279 whole entry, change not shown): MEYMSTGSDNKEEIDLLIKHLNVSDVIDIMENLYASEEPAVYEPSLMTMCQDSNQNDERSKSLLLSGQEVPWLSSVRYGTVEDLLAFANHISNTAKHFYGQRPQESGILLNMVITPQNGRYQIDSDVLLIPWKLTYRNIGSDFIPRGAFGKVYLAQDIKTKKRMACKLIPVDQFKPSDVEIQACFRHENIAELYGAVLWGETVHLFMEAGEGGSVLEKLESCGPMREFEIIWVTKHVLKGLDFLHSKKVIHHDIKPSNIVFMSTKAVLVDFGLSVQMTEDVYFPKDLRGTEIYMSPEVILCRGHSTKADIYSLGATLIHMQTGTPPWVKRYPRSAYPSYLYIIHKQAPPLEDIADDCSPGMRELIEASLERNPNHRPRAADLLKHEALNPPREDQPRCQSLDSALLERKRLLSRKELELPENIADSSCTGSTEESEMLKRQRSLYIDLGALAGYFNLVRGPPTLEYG

[5] = biological target: T2, panel of more than 300 wild-type and mutant kinases (313 kinase panel) (Homo sapiens, UniProt P43403); conditions: kinase ZAP70; compound at 1 μM
T2 sequence (P43403 1-619): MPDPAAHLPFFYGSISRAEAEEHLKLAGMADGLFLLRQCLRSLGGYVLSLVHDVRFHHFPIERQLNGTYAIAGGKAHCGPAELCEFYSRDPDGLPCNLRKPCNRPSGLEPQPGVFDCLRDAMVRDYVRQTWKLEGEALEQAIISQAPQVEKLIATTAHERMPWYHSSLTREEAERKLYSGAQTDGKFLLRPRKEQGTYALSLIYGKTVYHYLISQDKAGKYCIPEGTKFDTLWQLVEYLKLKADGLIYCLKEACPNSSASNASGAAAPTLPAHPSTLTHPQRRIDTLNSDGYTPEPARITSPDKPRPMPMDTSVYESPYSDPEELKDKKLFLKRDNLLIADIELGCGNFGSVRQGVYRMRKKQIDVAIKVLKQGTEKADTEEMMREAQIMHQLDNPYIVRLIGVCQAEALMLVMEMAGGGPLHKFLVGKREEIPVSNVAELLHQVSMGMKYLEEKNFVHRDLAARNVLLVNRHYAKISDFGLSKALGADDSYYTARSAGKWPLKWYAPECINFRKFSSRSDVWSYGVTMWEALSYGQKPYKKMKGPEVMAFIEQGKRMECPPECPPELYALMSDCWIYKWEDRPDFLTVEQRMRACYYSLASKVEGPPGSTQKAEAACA

[6] = biological target: T3, panel of more than 300 wild-type and mutant kinases (313 kinase panel) (Homo sapiens, UniProt P54760)
T3 sequence (P54760 16-987): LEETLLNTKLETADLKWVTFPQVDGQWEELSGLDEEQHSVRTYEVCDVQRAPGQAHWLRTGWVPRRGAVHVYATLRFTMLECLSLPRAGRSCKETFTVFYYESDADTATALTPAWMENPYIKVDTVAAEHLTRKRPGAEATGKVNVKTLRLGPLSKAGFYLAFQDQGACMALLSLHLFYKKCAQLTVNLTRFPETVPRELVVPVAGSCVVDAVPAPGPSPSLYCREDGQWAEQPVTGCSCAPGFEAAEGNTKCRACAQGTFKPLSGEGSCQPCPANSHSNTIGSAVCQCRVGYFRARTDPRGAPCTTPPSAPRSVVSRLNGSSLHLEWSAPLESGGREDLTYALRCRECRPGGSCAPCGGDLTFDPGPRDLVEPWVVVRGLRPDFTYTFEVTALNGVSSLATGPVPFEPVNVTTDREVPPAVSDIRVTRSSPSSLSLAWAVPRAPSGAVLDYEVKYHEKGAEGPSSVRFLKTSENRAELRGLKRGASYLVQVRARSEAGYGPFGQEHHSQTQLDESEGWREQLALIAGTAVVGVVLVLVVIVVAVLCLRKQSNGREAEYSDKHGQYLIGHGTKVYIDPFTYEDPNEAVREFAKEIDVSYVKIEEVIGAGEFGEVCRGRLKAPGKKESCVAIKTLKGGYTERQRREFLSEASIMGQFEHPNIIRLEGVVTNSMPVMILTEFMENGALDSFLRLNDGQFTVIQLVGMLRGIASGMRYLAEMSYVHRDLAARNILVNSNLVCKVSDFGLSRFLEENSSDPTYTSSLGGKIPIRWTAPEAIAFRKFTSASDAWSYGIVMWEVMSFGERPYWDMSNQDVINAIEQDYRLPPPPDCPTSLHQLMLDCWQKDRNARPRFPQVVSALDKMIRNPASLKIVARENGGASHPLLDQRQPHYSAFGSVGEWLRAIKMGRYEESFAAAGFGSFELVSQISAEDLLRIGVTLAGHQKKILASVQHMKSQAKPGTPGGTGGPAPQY

[7] = biological target: panel of more than 300 wild-type and mutant kinases (313 kinase panel) (Homo sapiens, UniProt Q9NQU5)
[8] = biological target: panel of more than 300 wild-type and mutant kinases (313 kinase panel) (Homo sapiens, UniProt P54756)

Compound | %-inhibition of DYRK3 ([1]; kinase DYRK3, compound at 1 μM) [%] | %-inhibition of FYN ([2]; kinase FYN, compound at 1 μM) [%] | %-inhibition of WEE1 ([3]; kinase WEE1, compound at 1 μM) [%] | %-inhibition of COT ([4]; kinase COT, compound at 1 μM) [%] | %-inhibition of ZAP70 [5] [%] | %-inhibition of EPHB4 ([6]; kinase EPHB4, compound at 1 μM) [%] | %-inhibition of PAK6 ([7]; kinase PAK6, 1 μM) [%] | %-inhibition of EPHA5 ([8]; kinase EPHA5, compound at 1 μM) [%] | %-inhibition of DYRK3 ([1]; 1 µM) [%] | %-inhibition of FYN ([2]; 1 µM) [%] | %-inhibition of WEE1 ([3]; 1 µM) [%] | %-inhibition of COT ([4]; 1 µM) [%] | %-inhibition of EPHA5 ([8]; 1 µM) [%] | %-inhibition of EPHB4 ([6]; 1 µM) [%] | %-inhibition of PAK6 ([7]; 1 µM) [%]
Cc1ccc(C(=O)Nc2ccc(CN3CCN(C)CC3)c(C(F)(F)F)c2)cc1C#Cc1cnc2cccnn12 [ponatinib] | 50 | 101 | 2.14 | -2.42 | 5 | 101 | -3 |  |  |  |  |  |  |  | 
CC(C)(C)c1nc(-c2cccc(NS(=O)(=O)c3c(F)cccc3F)c2F)c(-c2ccnc(N)n2)s1 [dabrafenib] | -5.68 |  | 0.651 | 9 | 3.47 |  | 9 |  |  |  |  |  |  |  | 
COc1cc(Nc2c(C#N)cnc3cc(OCCCN4CCN(C)CC4)c(OC)cc23)c(Cl)cc1Cl [bosutinib] | 12 | 95 | 98 | 7 | 76 | 96 | -0.35 |  |  |  |  |  |  |  | 
Cc1nc(Nc2ncc(C(=O)Nc3c(C)cccc3Cl)s2)cc(N2CCN(CCO)CC2)n1 [dasatinib] |  | 100 |  |  |  |  |  |  |  |  |  |  |  |  | 
CO[C@H]1C[C@@H]2CC[C@@H](C)[C@@](O)(O2)C(=O)C(=O)N2CCCC[C@H]2C(=O)O[C@H]([C@H](C)C[C@@H]2CC[C@@H](OC(=O)C(C)(CO)CO)[C@H](OC)C2)CC(=O)[C@H](C)/C=C(\C)[C@@H](O)[C@@H](OC)C(=O)[C@H](C)C[C@H](C)/C=C/C=C/C=C/1C [temsirolimus] | -0.454 | -1.39 | 4.25 | 8 | -2.76 | -9 | -6.47 | -3.79 |  |  |  |  |  |  | 
C#Cc1cccc(Nc2ncnc3cc(OCCOC)c(OCCOC)cc23)c1 [erlotinib] |  |  |  |  |  |  |  |  | 22 | 34 | 20 | -0.486 | 38 | 33 | 5
CCCS(=O)(=O)Nc1ccc(F)c(C(=O)c2c[nH]c3ncc(-c4ccc(Cl)cc4)cc23)c1F [vemurafenib] | 5 | 81 | -1.64 | 4.34 | 6 | 3.73 | -7 | 14 |  |  |  |  |  |  | 
N#CC[C@H](C1CCCC1)n1cc(-c2ncnc3[nH]ccc23)cn1 [ruxolitinib] | -9 | 11 | -1.32 | -3.66 | 2.76 | 0.569 | 3 |  |  |  |  |  | 18 |  | 
CC(=O)Nc1cccc(-n2c(=O)n(C3CC3)c(=O)c3c(Nc4ccc(I)cc4F)n(C)c(=O)c(C)c32)c1 [trametinib] | -10 | 9 | 9 | 13 | -3 | -3.38 | 8 | -2.67 |  |  |  |  |  |  | 
COc1cc2c(Nc3ccc(Br)cc3F)ncnc2cc1OCC1CCN(C)CC1 [vandetanib] | -5 | 88 | 1.73 | -2.53 | 4.47 |  | -5.42 | 89 |  |  |  |  |  |  | 
CS(=O)(=O)CCNCc1ccc(-c2ccc3ncnc(Nc4ccc(OCc5cccc(F)c5)c(Cl)c4)c3c2)o1 [lapatinib] | -2.24 | 1.29 | 8 | -0.221 | 6 | -0.865 | 0.144 | 6 |  |  |  |  |  |  | 
CO[C@H]1C[C@@H]2CC[C@@H](C)[C@@](O)(O2)C(=O)C(=O)N2CCCC[C@H]2C(=O)O[C@H]([C@H](C)C[C@@H]2CC[C@@H](OCCO)[C@H](OC)C2)CC(=O)[C@H](C)/C=C(\C)[C@@H](O)[C@@H](OC)C(=O)[C@H](C)C[C@H](C)/C=C/C=C/C=C/1C [everolimus] | -11 | -0.928 | 7 | -3 | -2 | -4.49 | -1.22 | -1.69 |  |  |  |  |  |  | 
CCN(CC)CCNC(=O)c1c(C)[nH]c(/C=C2\C(=O)Nc3ccc(F)cc32)c1C [sunitinib] |  | 88 |  |  |  |  |  |  |  |  |  |  |  |  | 
CN(C)C/C=C/C(=O)Nc1cc2c(Nc3ccc(F)c(Cl)c3)ncnc2cc1O[C@H]1CCOC1 [afatinib] | 29 |  |  | -7.4 |  |  |  |  |  |  |  |  |  |  | 
Cc1ccc(Nc2nccc(N(C)c3ccc4c(C)n(C)nc4c3)n2)cc1S(N)(=O)=O [pazopanib] | -4.54 |  | 1 | -0.233 | 39 | 16 | 5.54 | 32 |  |  |  |  |  |  | 
